Laboratory results from patent US20250042918A1, “COMPOUNDS” (Fundación Del Sector Públlco Estatal Centro Nacional De …, priority 2021, published 2025).

How the values were obtained:
[1] = system: BAD S112 phosphorylation in H1299 cells overexpressing PIM-1 (H1299Pim1); assay: BAD S112 phosphorylation inhibition assay (in Cell ELISA); assay type: cell-based; conditions: Homo sapiens, NCI-H1299, 4 hours, medium without FBS, read-out: BAD PH 1299PIM 1 ELIWO
Protocol: The efficacy of the compounds of the invention on the inhibition of BAD phosphorylation was measured by an in Cell ELISA.
Materials: H1299 cells overexpressing PIM-1 (H1299Pim1). DMSO Plates: 96-well-Polystyrene, Untreated, Round-Bottom plates from Costar (Cat #3797). Cell Plates: 96-Flat bottom biocoated with Poly-D-Lysin plates with lid from Becton Dickinson (Cat #354651). Cell Culture Medium: DMEM high glucose, 10% Fetal Bovine Serum, 2 mM L-Glutamine, P/S. Antibodies: phospho BAD S112 antibody from Cell Signaling (cat. #9291S), anti-rabbit conjugated with peroxidase from Amersham (cat. #3619). Reagent: SuperSignal ELISA femto from Pierce (cat. #1001110).
Procedure: Cells were seeded in 15000 cells per 200 μl per well into 96-well plates and incubated for 16 h at 37° C., 5% CO2. On day two, nine serial 1:2 compound dilutions were made in DMSO in a 96-well plate. The compounds were added to duplicate wells in 96-well cell plates using a FX BECKMAN robot (Beckman Coulter) and were incubated at 37° C. under CO2 atmosphere in medium without fetal bovine serum (FBS). After 4 hours, relative levels of BAD S112 phosphorylation were measured in Cell ELISA using SuperSignal ELISA Femto substrate (Pierce) and read on VICTOR (Perkin Elmer). EC50 values were calculated using ActivityBase from IDBS.

HCC38 = assay: In vitro potency against breast cancer cell lines (CellTiter Glo); assay type: cell-based; conditions: Homo sapiens, HCC38, 72 h; read-out: absolute IC50 HCC38
Protocol: (§1) To prepare the complete medium FBS and appropriate additives were added according to the information sheet provided by the vendor and mixed gently. The cell name and complete medium and passage number marked on the flask were checked, and the culture medium removed and discarded using a vacuum pump. […] 3.0 ml of Trypsin-EDTA solution was added to the flask and the cells observed under an inverted microscope until cell layer is dispersed. 8.0 ml of complete growth medium was added and the cells aspirated by gently pipetting. The cell suspension was transferred to a centrifuge tube and centrifuged at 800-1000 rpm for 3-5 minutes. The supernatant was discarded using a vacuum pump, and an appropriate volume of complete medium added. The cell pellet was suspended by gently pipetting, and the cell numbers counted with Vi-cell XR and the cells adjusted to appropriate density. 100 μL of cell suspension to 96-well opaque-walled clear bottom plates was added according to the planned plate layout and the plates placed in the CO2 incubator overnight.
(§2) c. […] Meanwhile the day 0 plate was measured by Cell TiterGlo as listed below.
(§3) d. Cells were incubated with the compounds for 72 h at 5% CO2, 37° C.
(§4) The CellTiter-Glo buffer was thawed and equilibrated to room temperature prior to use. The lyophilized CellTiter-Glo substrate was equilibrated to room temperature prior to use. The appropriate volume of CellTiter-Glo buffer was transferred into the amber bottle containing CellTiter-Glo substrate to reconstitute the lyophilized enzyme/substrate mixture, thereby forming the CellTiter-Glo reagent. Mixing was carried out by gently vortexing, swirling or by inverting the contents to obtain a homogeneous solution, the CellTiter-Glo substrate going into solution easily in less than one minute.
(§5) The plate and its contents were equilibrated to room temperature for approximately 30 minutes, after which 100 μL of CellTiter-Glo reagent was added to the assay plate by Multidrop Combi instrument and the contents mixed for 10 minutes on an orbital shaker to induce cell lysis. The plate was allowed to incubate at room temperature for 10 minutes to stabilize luminescent signal and the clear bottom pasted with white back seal and the luminescence recorded with Enspire with the settings: Luminescence, measurement time 0.1 ms.

MDA-MB-361 = assay: as above; assay type: cell-based; conditions: Homo sapiens, MDA-MB-361, 72 h; read-out: absolute IC50 MDA-MB-361
Protocol: as §1, §2, §3, §4, §5

HCC1954 = assay: as above; assay type: cell-based; conditions: Homo sapiens, HCC1954, 72 h; read-out: absolute IC50 HCC1954
Protocol: as §1, §2, §3, §4, §5

T-47D = assay: as above; assay type: cell-based; conditions: Homo sapiens, T47D, 72 h; read-out: absolute IC50 T-47D
Protocol: as §1, §2, §3, §4, §5

HCC1143 = assay: as above; assay type: cell-based; conditions: Homo sapiens, HCC1143, 72 h; read-out: absolute IC50 HCC1143
Protocol: as §1, §2, §3, §4, §5

BT-474 = assay: as above; assay type: cell-based; conditions: Homo sapiens, BT-474, 72 h; read-out: absolute IC50 BT-474
Protocol: as §1, §2, §3, §4, §5

[2] = system: Naïve CD4+ T cells, Th1 cells; assay: CD4+ T cell differentiation under Th1 conditions (IFNγ, ELISA and FACS); assay type: cell-based, mice
Protocol: Naïve CD4^+ T cells were purified from mice spleens and lymph nodes using positive selection by magnetic beads (CD4 L3T4 Kit, Miltenyi Biotec, UK). The purified T cells were activated by plate-bound αCD3ε (1 μg/ml; 2C11) and αCD28 (3 μg/ml; 37.51) in the presence or absence of the compound of Example 1 or Cyclosporin A (Sigma Aldrich), and cultured for 72 hrs under Th1 conditions (IL-12 [20 ng/ml]+αIL-4 (11B1) [10 μg/ml]), 72 hrs under Th17 conditions (αIFNγ [10 μg/ml]+αIL-4 [5 μg/ml]+IL-6 [[…]]+TGFβ(5 ng/ml)), and 96 hrs under iTreg conditions (TGFβ (5 ng/ml)) at 37° C.
ELISA kits for mouse IFNγ and IL-17a were purchased from eBioscience (Thermo Fisher, UK) and performed in accordance to manufacturer's instructions using Corning® High Binding ELISA plates (Merck, CLS9018). All ELISAs were analysed using a Synergy MX microplate reader (BioTek).
Intracellular protein expression was evaluated by first restimulating the cells with phorbol-12-myristate 13-acetate (PMA)(10 ng/ml) (Sigma Aldrich), ionomycin (1 μg/ml) (Sigma Aldrich) and Brefeldin A (5 μg/ml) (eBioscience) for 4-6 hours at 37° C. […] Fc block (93) and all fluorescence dye labelled antibodies used αCD4 (GK1.5), αIFNγ (XMG1.2), αIL-17a (17B7), αFOXP3 (NRRF-30; FJK-16S) were purchased from eBiosciences (Thermo Fisher, UK). […]

EC50 [1]: 0.0083 µM
IC50 (HCC38): 5.56 µM
IC50 (MDA-MB-361): 9 µM
IC50 (HCC1954): 8.04 µM
IC50 (T-47D): 6.19 µM
IC50 (HCC1143): 5.56 µM
IC50 (BT-474): 7.77 µM
SMILES: CN1CCOc2c1c(N[C@H]1CC[C@@](C)(O)CC1)nn1c(-c3cccc(OC(F)(F)F)c3)nnc21 [Example 1, 1-Methyl-4-[6-methyl-3-(3-trifluoromethoxy-phenyl)-7,8-dihydro-6H-9-oxa-1,2,3a,4,6-pentaaza-cyclopenta[a]naphthalen-5-ylamino]-cyclohexanol]
pro-inflammatory Th1 responses ([2]; 12.5 nM, 72 hrs Th1 conditions): significant suppression
Differentiation of Th1 cells in vitro as determined by the secretion of IFNγ ([2]; across a range of concentrations, ELISA and FACS): inhibited
